Reference: patent publication US20030165446A1, “Divalent manganese salts for reducing odour resulting from bacterial decomposition of human perspiration” (priority 2003, published 2003)

Key:
[1] = system: natural sweat (human axillary sweat); settings: 1 mg of active material per ml of sweat, i.e. 0.1%, incubated 18 h then 24 h at 37° C., with respect to control sweat without deodorant agent; for Mean % of reduction in the odor annoyance (mean over 18 h and 24 h): hedonic grade
Protocol: A test of inhibition of the evolution of odors was carried out on natural sweat.
The principle of this test consists in adding the deodorant agent to fresh sweat and then in carrying out an olfactory evaluation by a jury of experts after incubating for 18 hours and then 24 hours at 37° C.
Thus, the axillary sweat was taken from several human models in a sauna and was combined to produce a sample of sweat. In order to obtain the characteristic nauseating odor of sweat, this sample of sweat was incubated […]. […] The active substance was then introduced into each of the flasks to be tested.
Per 1 mg of active material per ml of sweat, i.e. 0.1%: […]

[2] = background statement; cited from earlier work
[3] = system: Corynebacterium xerosis; format: cell-based; settings: dilutions in agar medium
Protocol: (§1) The microbiostatic activity of MnCl2 was determined in comparison with triclosan (deodorant active principle of the prior art) by the method of dilutions in agar medium.
(§2) One hundred μl of the ethanolic solution were added to 0.9 ml of agar culture heated beyond the melting point to 45° C. (medium chosen as a function of the nutrient requirements of the strain studied). After stirring with a Vortex device, successive dilutions in geometric progression in a ratio of 2 of the solution obtained were carried out using agar culture medium heated beyond the melting point to 45° C. One ml of each dilution was introduced into the wells of a microplate (Flacon [sic], 24 wells). Four μl of microbial suspension were deposited at the surface of the agar medium.
(§3) Two control wells were also prepared: 100 μl H2O+0.9 ml of culture medium (growth control), 100 μl ethanol+0.9 ml of culture medium.
(§4) After incubating under conditions (temperature, atmosphere and duration) dependent on the strain studied, the Minimum Inhibitory Concentration (MIC) is given by the lowest concentration of product which inhibits microbial growth.
(§5) Results: expressed in % w/v

[4] = system: Staphylococcus epidermidis; format: cell-based; settings: dilutions in agar medium
Protocol: as §1, §2, §3, §4, §5

Row | Compound | Mean % of reduction in the strength of the odor (mean over 18 h and 24 h) [1] | Mean % of reduction in the odor annoyance (mean over 18 h and 24 h) [1] | solubility in water [2] | Minimum Inhibitory Concentration (MIC) [3] | Minimum Inhibitory Concentration (MIC) [4]
1 | Oc1cc(Cl)ccc1Oc1ccc(Cl)cc1Cl [Triclosan, 2,4,4′-trichloro-2′-hydroxydiphenyl ether] | −39% | −27% | insoluble | 4 × 10^−6 % w/v | 3 × 10^−8 % w/v
2 | manganese chloride [MnCl2] | −43% | −31% | – | 0.23 % w/v | 0.23 % w/v
